This is an account of results in patent US10434085B2, “Non-aromatic difluoro analogues of resorcylic acid lactones” (The University of North Carolina at Greensboro, priority 2015, dated 2019).

A value given as a limit tells only on which side of the number the result lay.

The term IC50 denotes the concentration needed to halve the response being measured.

The target of one series is TaK1-TaB1 (TAK-1 enzyme) (Homo sapiens (Human), UniProt O43318). The series can be described thus: TaK1-TaB1 inhibitor assay (IC50 of RAL analogues against TAK-1 enzyme). The class given is biochemical. The following applies: Table 1, TAK-1 enzyme. The source says: IV. TaK1-TaB1 (Transforming Growth Factor-β Activated Linase-1/TAK-1 Binding Protein 1) Inhibitor Assays
TaK1-TaB1 (TAK-1 enzyme), sequence (O43318 other isoform, or with tags, fused parts or gaps): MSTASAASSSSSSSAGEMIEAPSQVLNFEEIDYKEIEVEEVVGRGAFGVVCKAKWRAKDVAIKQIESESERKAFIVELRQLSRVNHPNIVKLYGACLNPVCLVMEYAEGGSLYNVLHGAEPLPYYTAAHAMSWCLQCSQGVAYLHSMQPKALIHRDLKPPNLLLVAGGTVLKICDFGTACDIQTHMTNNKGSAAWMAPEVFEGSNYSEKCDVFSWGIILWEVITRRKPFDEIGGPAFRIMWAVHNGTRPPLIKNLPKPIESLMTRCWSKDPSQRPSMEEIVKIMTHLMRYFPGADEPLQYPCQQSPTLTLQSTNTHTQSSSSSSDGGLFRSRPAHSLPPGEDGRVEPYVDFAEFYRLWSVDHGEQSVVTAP
`COc1cc(O)c2c(c1)[C@H]1O[C@@H]1C[C@H](O)[C@H](O)C(=O)CCC[C@H](C)OC2=O` [dihydrohypothemycin, reference compound] yielded an IC50 of over 30 µM.

Take `COc1cc(O)c2c(c1)/C=C/C[C@@H]1OC(CC(=O)[C@H]1O)C[C@H](C)OC2=O` [Compound 9, (1^2S,1^3S,8S,E)-1^3,5^3-Dihydroxy-5^5-methoxy-8-methyl-1^3,1^4,1^5,1^6-tetrahydro-1^2H-7-oxa-1(2,6)-pyrana-5(1,2) benzenacyclononaphan-3-ene-1^4,6-dione]: the half-maximal inhibitory concentration (IC50) was over 30 µM.

On to `C/C=C\C=C/C(=O)[C@@H](O)[C@@H](O)C/C=C/c1cc(OC)cc(OC)c1C(=O)OC` [Compound 4, Methyl 2-((1E,4S,5S,7Z,9Z)-4,5-dihydroxy-6-oxoundeca-1,7,9-trien-1-yl)-4,6-dimethoxybenzoate], for which the IC50 was over 30 µM.

Compound `COc1cc2c(c(O)c1Br)C(=O)O[C@@H](C)C/C=C\C(=O)[C@@H](O)[C@@H](O)C/C=C/2` [Compound 6, (3S,5Z,8S,9S,11E)-15-Bromo-8,9,16-trihydroxy-14-methoxy-3-methyl-3,4,9,10-tetrahydro-1H-benzo[c][1]oxacyclotetradecine-1,7(8H)-dione] registered a half-inhibitory concentration (IC50) of 2.6 µM. That is a single-digit micromolar value.

Turning to `COc1cc(O)c2c(c1)/C=C/C[C@H](O)[C@H](O)[C@@H](O)/C=C/C[C@H](C)OC2=O` [zeaenol, reference compound], it took 10 µM to reach half-maximal inhibition (IC50).

In the case of `COc1cc(O)c2c(c1Br)/C=C/C[C@H](O)[C@H](O)C(=O)/C=C\C[C@H](C)OC2=O` [Compound 7, (3S,5Z,8S,9S,11E)-13-Bromo-8,9,16-trihydroxy-14-methoxy-3-methyl-3,4,9,10-tetrahydro-1H-benzo[c][1]oxacyclotetradecine-1,7(8H)-dione], the IC50 turned out to be 0.36 µM. This IC50 is about 28-fold lower than that of the compound before.

On to `COc1cc(O)c2c(c1)/C=C/C[C@H](O)[C@H](O)C(=O)CCC[C@H](C)OC2=O` [LL-Z164-1, reference compound], for which the IC50 came out at 2.6 µM. This IC50 lies about 7.2-fold higher than the previous one.

Staying with this series, now noted: among synthesized analogues.
Consider `COC1=CC(=O)C2=C(/C=C/C[C@H](O)[C@H](O)C(=O)/C=C\C[C@H](C)OC2=O)C1(F)F` [Compound 5, (3S,5Z,8S,9S,11E)-13,13-Difluoro-8,9-dihydroxy-14-methoxy-3-methyl-3,4,9,10-tetrahydro-1H benzo[c][1]oxacyclotetradecine-1,7,16(8H,13H)-trione], for which the “activity in TAK-1 assay” value is “relatively active”.

Still in this series, the particulars now being: restated in Table 2 beside docking scores.
In turn, `C/C=C\C=C/C(=O)[C@@H](O)[C@@H](O)C/C=C/c1cc(OC)cc(OC)c1C(=O)OC` [Compound 4, Methyl 2-((1E,4S,5S,7Z,9Z)-4,5-dihydroxy-6-oxoundeca-1,7,9-trien-1-yl)-4,6-dimethoxybenzoate] showed an IC50 of over 30 µM.

For `COc1cc(O)c2c(c1)/C=C/C[C@@H]1OC(C)(C)O[C@@H]1C(=O)/C=C\C[C@H](C)OC2=O` [Compound 10, (3aS,5Z,8S,15E,17aS)-11-Hydroxy-13-methoxy-2,2,8-trimethyl-7,8,17,17a-tetrahydro-4H-benzo[c][1,3]dioxolo[4,5-h][1]oxacyclotetradecine-4,10(3aH)-dione], the midpoint of inhibition, the IC50, lay at 0.38 µM. In other words, the sub-micromolar range.

Regarding `COc1c(Br)c(O)c2c(c1Br)/C=C/C[C@H](O)[C@H](O)C(=O)/C=C\C[C@H](C)OC2=O` [Compound 8, (3S,5Z,8S,9S,11E)-13,15-Dibromo-8,9,16-trihydroxy-14methoxy-3-methyl-3,4,9,10-tetrahydro-1H-benzo[c][1]oxacyclotetradecine-1,7(8H)-dione], the IC50 worked out at 8.9 µM.

In the case of `COc1cc(O)cc2c1C(=O)O[C@@H](C)CCCCC/C=C/C(=O)C2` [Greensporone C, reference compound], the 50% inhibitory concentration (IC50) was over 30 µM.

Test system in a further series: not given
Test: not given
The following applies: cited from earlier work.
For the compound `COc1cc(O)c2c(c1)/C=C/C[C@H](O)[C@H](O)C(=O)/C=C\C[C@H](C)OC2=O` [(5Z)-7-oxozeaenol], the stability in plasma entry is “instability in plasma”.
